Reference: publication PMC11746142, “Structural plasticity of bacterial ESCRT-III protein PspA in higher-order assemblies” (Nature Structural & Molecular Biology, 2024)
Blank lines part the entries; values can stand above or below the molecule they belong to.

Experiments:
[1] = molecular target: T1, PspA (SynPspA, PspA wild type, slr1188) (Synechocystis sp. PCC 6803, UniProt P74717); experiment: cryo-EM structure of helical rods; format: binding; conditions: rods refolded with 2 mM ATP, 4 mM MgCl2; ADP modelled in weak density, incomplete occupancy; site near α3/α4 loop between four chains; 180, 200, 215, 235 Å rods
T1 construct: gene im30; 28 kDa band

[2] = molecular target: T1, PspA (SynPspA, PspA wild type, slr1188); experiment: inhibition of ATPase activity; format: biochemical; conditions: high concentration needed; against ATP hydrolysis; non-hydrolysable analogue
[3] = molecular target: T2, PspA (SynPspA, PspA wild type, slr1188) (Synechocystis sp. PCC 6803, UniProt P74717, R44K/E126Q/E179Q); experiment: bound nucleotide by HPLC-MS/MS after washing; malachite-green ATPase; format: biochemical; conditions: 2 mM ATP, 4 mM MgCl2, 10 mM Tris-HCl pH 8.0, 37 °C, 24 h
T2 construct: gene im30; 28 kDa band

[4] = molecular target: T1, PspA (SynPspA, PspA wild type, slr1188); experiment: malachite-green phosphate release; ADP-Glo; bound nucleotide by HPLC-MS/MS; format: biochemical; conditions: 2 mM ATP, 4 mM MgCl2, 10 mM Tris-HCl pH 8.0, 37 °C
PspA α1–α5 = molecular target: T3, PspA α1–α5 (Synechocystis sp. PCC 6803, UniProt P74717); experiment: malachite-green phosphate release; ADP-Glo; format: biochemical; conditions: 2 mM ATP, 4 mM MgCl2, 10 mM Tris-HCl pH 8.0, 37 °C
T3 construct: gene im30; helix α0 removed (amino acids 1-23 in Methods; 'first 22 amino acids' in Results); 25 kDa band

PspF(1–275) (EcoPspF) = molecular target: T4, PspF(1–275) (EcoPspF) (Escherichia coli, UniProt P37344); experiment: ATPase activity; format: biochemical; conditions: comparison ATPase
T4 construct: residues 1-275, E. coli BL21 (DE3), pET50(b)-derived plasmid, Ni-NTA purified

[5] = molecular target: T1, PspA (SynPspA, PspA wild type, slr1188); experiment: inhibition of ATPase activity; format: biochemical; conditions: high concentration needed; against ATP hydrolysis; non-hydrolysable analogue; remark: listed apart in the source

T1 sequence (P74717 entry or part of it): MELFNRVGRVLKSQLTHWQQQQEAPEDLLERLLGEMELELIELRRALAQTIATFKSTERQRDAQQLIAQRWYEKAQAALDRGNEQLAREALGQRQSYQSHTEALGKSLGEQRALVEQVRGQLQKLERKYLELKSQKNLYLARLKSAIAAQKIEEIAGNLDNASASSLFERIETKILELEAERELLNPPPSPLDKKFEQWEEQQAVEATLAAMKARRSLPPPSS
T2 sequence (P74717 entry or part of it R44K/E126Q/E179Q): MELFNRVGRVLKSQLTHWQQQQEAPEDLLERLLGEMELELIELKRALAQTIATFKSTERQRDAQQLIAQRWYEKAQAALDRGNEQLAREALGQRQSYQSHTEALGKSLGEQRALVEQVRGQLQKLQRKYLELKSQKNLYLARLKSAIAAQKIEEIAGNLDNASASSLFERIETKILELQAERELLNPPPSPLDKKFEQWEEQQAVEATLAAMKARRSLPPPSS
T4 sequence (P37344 1-275): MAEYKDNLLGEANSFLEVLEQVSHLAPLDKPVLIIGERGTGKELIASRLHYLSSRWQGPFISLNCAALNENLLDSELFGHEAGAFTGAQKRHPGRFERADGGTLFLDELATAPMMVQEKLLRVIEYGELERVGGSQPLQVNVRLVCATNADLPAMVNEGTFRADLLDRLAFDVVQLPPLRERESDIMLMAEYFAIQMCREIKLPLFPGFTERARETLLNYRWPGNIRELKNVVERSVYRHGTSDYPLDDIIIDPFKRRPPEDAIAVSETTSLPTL
T3 sequence (P74717 entry or part of it): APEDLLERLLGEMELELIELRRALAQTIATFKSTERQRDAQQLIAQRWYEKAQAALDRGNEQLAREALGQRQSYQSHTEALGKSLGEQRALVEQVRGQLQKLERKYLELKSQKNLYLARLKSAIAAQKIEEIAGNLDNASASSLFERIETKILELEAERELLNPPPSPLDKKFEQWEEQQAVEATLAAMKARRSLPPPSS

SMILES: Nc1ncnc2c1ncn2[C@@H]1O[C@H](COP(=O)(O)OP(=O)(O)O)[C@@H](O)[C@H]1O [ADP]
cryo-EM structure of helical rods [1]: Models of PspA apo (PDB:7ABK) and PspA+ATP with an ADP model fitted

SMILES: Nc1ncnc2c1ncn2[C@@H]1O[C@H](COP(=O)(O)OP(=O)(O)CP(=O)(O)O)[C@@H](O)[C@H]1O [AMPPCP]
ATPase activity vs AMPPCP concentration [2]: could be decreased by high concentrations of ATPase inhibitors such as ATPγS or AMPPCP

malachite-green phosphate release; ADP-Glo; bound nucleotide by HPLC-MS/MS [4]: PspA can bind and hydrolyze ATP
SMILES: Nc1ncnc2c1ncn2[C@@H]1O[C@H](COP(=O)(O)OP(=O)(O)OP(=O)(O)O)[C@@H](O)[C@H]1O [ATP]
bound nucleotide by HPLC-MS/MS after washing; malachite-green ATPase [3]: R44K/E126Q/E179Q mutant was still capable of ATP binding and hydrolysis
malachite-green phosphate release; ADP-Glo (PspA α1–α5): did not significantly reduce the ATPase activity
ATPase activity (PspF(1–275) (EcoPspF)): approximately ten times lower than bona fide AAA+ ATPases, such as E. coli PspF

SMILES: Nc1ncnc2c1ncn2[C@@H]1O[C@H](COP(=O)(O)OP(=O)(O)OP(O)(O)=S)[C@@H](O)[C@H]1O [ATPγS]
ATPase activity vs ATPγS concentration [5]: could be decreased by high concentrations of ATPase inhibitors such as ATPγS or AMPPCP
